The text below walks through data of patent US7101848B2, “Bicyclic oligopeptides” (Boehringer Ingelheim Pharma GmbH & Co. KG, priority 2002, dated 2006).

Values after ≈ are worked out from the molar mass of the structure shown. Where a SMILES comes first, the peptide text is derived from it. Bridges are numbered along the chain shown (N, C = ends).

The nature of series [1]: Metabolic stability with human liver microsomes. Format: in vitro ADME. Conditions: Human Micros; substrate 1 μM, 37° C., up to 45 min. As for the experimental part: (§1) Incubations with preparations of microsomes and cytosol and with plasma under conditions as described below are suitable to investigate the metabolic stability of test compounds (e.g. oxidative metabolism reactions and hydrolysis by esterases). The metabolic stability of the test compounds of examples 1 and 2 is investigated in liver microsomes and cytosol of humans, dogs and rats and in plasma of humans and rats.
(§2) Incubations of test compounds (final concentration: 1 μM) are performed with liver microsomes and cytosol (0.5 mg protein/ml) in Tris buffer (Tris-(hydroxymethyl)-aminomethane) pH 7.4 (0.1 M) containing magnesium chloride (5 mM) at 37° C. for up to 45 min in a total volume of 100 μl. The reaction is initiated by addition of β-nicotinamide adenine dinucleotide phosphate, reduced form (NADPH, 1 mM) and terminated by addition of acetonitrile. After vortex mixing and centrifugation the supernatants are analyzed.
(§3) The samples are analyzed by on-line solid phase extraction and reversed phase HPLC coupled to electro-spray ionization tandem mass spectrometry. The measurements are performed on a triple quad mass spectrometer Quattro II (Micromass, Manchester, UK). The instrument operates at nominal mass resolution in SIR-mode. The analytes are quantified by detection of their quasimolecular ions [M+2H]^2+ m/z 1019 (Example 1) and m/z 1026 (Example 2).

Series [2] is described as follows: Metabolic stability with human liver cytosol. The settings on record: 37° C., up to 45 min. Format: in vitro ADME. As for the experimental part: as §1, §2, §3
Series [3] in a line: Metabolic stability with dog liver cytosol. Format: in vitro ADME. Conditions: 37° C., up to 45 min. The method, then: as §1, §2, §3
A short description of series [4]: Stability in human plasma. Format: in vitro ADME. Conditions: plasma (heparin), pH 7.4, substrate 1 μM, 37° C., up to 45 min, read-out: Half-lives (t½). The method, then:
as §1
(§4) Incubations of test substrates (final concentration: 1 μM) are performed with human and rat plasma (heparin) containing 0.1 M Tris buffer pH 7.4. The reaction is initiated by addition of the test compound at 37° C. for up to 45 min and terminated by addition of acetonitrile. After vortex mixing and centrifugation the supernatants are analyzed.
as §3

Series [5] can be described thus: Solubility in buffer. Format: physicochemical. The text has this:
and the following solubilities:

A short description of series [6]: Metabolic stability with rat liver cytosol. The settings on record: 37° C., up to 45 min. Format: in vitro ADME. The method, then: as §1, §2, §3
The nature of series [7]: Metabolic stability with rat liver microsomes. Format: in vitro ADME. The settings on record: Rat Micros; substrate 1 μM, 37° C., up to 45 min. As for the experimental part: as §1, §2, §3
Background: Liver microsomes are a subcellular fraction often used to study metabolism.

A short description of series [8]: Stability in rat plasma. Format: in vitro ADME. Conditions: substrate 1 μM, 37° C., up to 45 min. The method, then: as §1, §4, §3
The nature of series [9]: Metabolic stability with dog liver microsomes. The settings on record: Dog Micros; substrate 1 μM, 37° C., up to 45 min. Format: in vitro ADME. The method, then:
as §1, §2, §3

Where [10] appears, read: liver cytosol, pH 7.4, substrate 1 μM, read-out: Half-lives (t½).

As for `CC[C@H](C)[C@@H]1NC(=O)[C@@H]2CC(=O)NCC(=O)N[C@@H](CC(C)C)C(=O)N3CCC[C@H]3C(=O)N[C@@H](Cc3c[nH]c4ccccc34)C(=O)NCC(=O)N[C@@H](CSSC[C@@H](C(=O)OC)NC(=O)[C@H](C)NC(=O)[C@H](Cc3c[nH]c4ccccc34)NC(=O)[C@@H]3CCCN3C(=O)[C@H]([C@@H](C)O)NC(=O)[C@H](CC(N)=O)NC(=O)[C@H](Cc3c[nH]c4ccccc34)NC(=O)CNC(=O)[C@@H]3CCCN3C1=O)C(=O)N1CCC[C@H]1C(=O)N[C@@H](CO)C(=O)N2` [Example 2] (GLPWGCPSDIPGWNTPWAC-OMe; disulfide 6-19; lactam N-9), the “Half-lives (t½)” value in [1], in series [7], in [8] and in series [9] was “stable” throughout. The half-life at 1 μM came out at 2.03 h in series [2] (setting [10]), 2.33 h in series [3] (setting [10]), 3 h in [4] and 1.22 h in series [6] (setting [10]). Besides, the figures for the solubility in series [5] (Buffer pH 3.0), in [5] (Buffer pH 7.4) and in series [5] (Buffer pH 10.0) were 3 µg/mL (≈ 1.46 µM), 2 µg/mL (≈ 0.975 µM) and 4 µg/mL (≈ 1.95 µM), respectively.

On to `CC[C@H](C)[C@@H]1NC(=O)[C@@H]2CC(=O)NCC(=O)N[C@@H](CC(C)C)C(=O)N3CCC[C@H]3C(=O)N[C@@H](Cc3c[nH]c4ccccc34)C(=O)NCC(=O)N[C@@H](CSSC[C@@H](C(=O)O)NC(=O)[C@H](C)NC(=O)[C@H](Cc3c[nH]c4ccccc34)NC(=O)[C@@H]3CCCN3C(=O)[C@H]([C@@H](C)O)NC(=O)[C@H](CC(N)=O)NC(=O)[C@H](Cc3c[nH]c4ccccc34)NC(=O)CNC(=O)[C@@H]3CCCN3C1=O)C(=O)N1CCC[C@H]1C(=O)N[C@@H](CO)C(=O)N2` [Example 1] (GLPWGCPSDIPGWNTPWAC-OH; disulfide 6-19; lactam N-9), for which the “Half-lives (t½)” value in series [1], in series [2] (substrate 1 μM), in series [3] (substrate 1 μM), in [6] (substrate 1 μM), in [7] and in [8] was “stable” in each case. Besides, in [9], the “Half-lives (t½)” value was “stable”. Further, in series [4], the half-life at 1 μM stood at 3.03 h. The solubility – broadly, how much of the substance goes into solution per volume – in [5] (Buffer pH 3.0) is 3 µg/mL (≈ 1.47 µM); in series [5] (Buffer pH 7.4), 120 µg/mL (≈ 58.9 µM); in series [5] (Buffer pH 10.0), 92 µg/mL (≈ 45.2 µM).
